Experimental data: patent US20200048259A1, “KDM5 INHIBITORS” (priority 2016, published 2020)

biological target: T1, Full-length KDM5B enzyme (Homo sapiens, UniProt Q9UGL1); assay: KDM5B TR-FRET Enzyme Activity Assay (LANCE); format: biochemical; details: not given
T1 construct: recombinant protein from baculovirus-transfected Sf21 cells: full-length KDM5B; MW=176.825 kDa; host or cells: baculovirus-transfected Sf21 insect cells
Description: KDM5B TR-FRET Enzyme Activity Assay
KDM5B enzymatic activity was determined with the LANCE (Lanthanide Chelate Excite) TR-FRET (Time-resolved fluorescence resonance energy transfer) assay. […] Following a 30 minutes compound and enzyme incubation in a humidified chamber, each reaction was initiated by the addition of 1 μL 1× assay buffer containing […] biotinylated H3K4Me3 peptide, and 500 nM α-ketoglutarate. The final reaction in each well of 5 μL consists of 5 nM KDM5B, 500 nM biotinylated-peptide, and 500 nM α-ketoglutarate. De-methylation reactions were allowed to proceed for 60 minutes. Reactions were immediately quenched by the addition of 5 μL of 2× Lance Detection Buffer (PerkinElmer) with 0.5 mM EDTA and 2 nM of Eu-anti-H3K4Mel-2 antibody, and 30 nM of Streptavidin-conjugated Dylight 650 detection reagents. After 60 minutes incubation with detection reagents, reaction plates were read on a PerkinElmer EnVision plate reader using standard TR-FRET protocol. Briefly, excitation of donor molecules (Eu-chelate-anti-H3K4Me1-2-antibody) with a laser light source at 337 nm produces energy that can be transferred to Dylight-650 acceptor molecules if this donor:acceptor pair is within close proximity.
Fluorescence intensity at both 665 nm (acceptor) and 615 nm (donor) are measured and a TR-FRET ratio calculated for each well (acceptor intensity/donor intensity). IC50 values were determined by 4 parameter robust fit of TR-FRET ratio values vs. (Log 10) compound concentrations.

T1 sequence (Q9UGL1 whole entry): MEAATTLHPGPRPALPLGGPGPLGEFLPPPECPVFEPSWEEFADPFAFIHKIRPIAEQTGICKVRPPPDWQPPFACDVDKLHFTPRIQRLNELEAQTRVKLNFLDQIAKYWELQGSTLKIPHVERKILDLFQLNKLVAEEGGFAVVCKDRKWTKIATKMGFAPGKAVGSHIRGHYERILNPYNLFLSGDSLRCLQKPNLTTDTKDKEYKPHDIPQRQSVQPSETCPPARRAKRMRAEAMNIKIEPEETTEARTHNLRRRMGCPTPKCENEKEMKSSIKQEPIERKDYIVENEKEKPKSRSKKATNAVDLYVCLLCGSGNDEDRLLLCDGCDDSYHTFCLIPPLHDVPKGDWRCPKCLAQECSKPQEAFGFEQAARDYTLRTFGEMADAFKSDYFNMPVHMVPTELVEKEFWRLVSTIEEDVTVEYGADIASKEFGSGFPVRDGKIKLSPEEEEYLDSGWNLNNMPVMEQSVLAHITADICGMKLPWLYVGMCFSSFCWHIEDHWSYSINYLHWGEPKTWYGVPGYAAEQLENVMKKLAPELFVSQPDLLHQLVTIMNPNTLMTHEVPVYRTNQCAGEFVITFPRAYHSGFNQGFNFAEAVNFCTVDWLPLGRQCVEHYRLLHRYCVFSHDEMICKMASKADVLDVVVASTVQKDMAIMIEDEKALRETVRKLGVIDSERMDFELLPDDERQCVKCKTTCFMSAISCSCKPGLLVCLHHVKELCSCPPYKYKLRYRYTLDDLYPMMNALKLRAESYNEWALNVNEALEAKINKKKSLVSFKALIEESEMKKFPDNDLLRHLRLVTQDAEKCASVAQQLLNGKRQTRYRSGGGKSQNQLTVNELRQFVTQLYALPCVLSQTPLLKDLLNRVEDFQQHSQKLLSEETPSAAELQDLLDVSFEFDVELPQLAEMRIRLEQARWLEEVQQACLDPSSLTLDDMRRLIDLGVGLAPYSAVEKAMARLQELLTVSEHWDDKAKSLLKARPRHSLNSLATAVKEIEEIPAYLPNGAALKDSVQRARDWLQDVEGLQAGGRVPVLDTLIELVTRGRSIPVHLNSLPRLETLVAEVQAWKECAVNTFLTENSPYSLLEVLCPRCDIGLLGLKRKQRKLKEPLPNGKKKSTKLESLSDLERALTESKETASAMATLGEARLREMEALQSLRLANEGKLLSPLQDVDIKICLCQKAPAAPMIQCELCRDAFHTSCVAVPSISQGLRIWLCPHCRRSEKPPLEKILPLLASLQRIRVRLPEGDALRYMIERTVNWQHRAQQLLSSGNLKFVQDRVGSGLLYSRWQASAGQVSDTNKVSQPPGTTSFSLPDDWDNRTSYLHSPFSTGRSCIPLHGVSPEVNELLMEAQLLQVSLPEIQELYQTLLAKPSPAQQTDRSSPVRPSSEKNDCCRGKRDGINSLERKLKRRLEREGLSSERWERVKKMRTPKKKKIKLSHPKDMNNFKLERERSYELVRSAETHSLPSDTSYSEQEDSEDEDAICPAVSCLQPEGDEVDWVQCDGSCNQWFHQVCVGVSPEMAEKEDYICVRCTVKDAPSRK

| SMILES | IC50 [µM] |
| --- | --- |
| Cc1nc2[nH]c(C)c(Cc3ccccc3)c(=O)n2n1 [Example 7-4, 6-benzyl-2,5-dimethyl[1,2,4]triazolo[1,5-a]pyrimidin-7(4H)-one] | > 100 |
| Cc1nc2[nH]c(C(C)C)cc(=O)n2n1 [Example 7-6, 2-methyl-5-(1-methylethyl)[1,2,4]triazolo[1,5-a]pyrimidin-7(4H)-one] | > 100 |
| CCCCc1c(C)[nH]c2nc(C)nn2c1=O [Example 7-8, 6-butyl-2,5-dimethyl[1,2,4]triazolo[1,5-a]pyrimidin-7(4H)-one] | > 100 |

Now from value to molecule:

| IC50 [µM] | SMILES |
| --- | --- |
| > 100 | Cc1[nH]c2nc(C3CC(F)(F)C3)nn2c(=O)c1C(C)C [Example 7-23, 2-(3,3-difluorocyclobutyl)-5-methyl-6-(1-methylethyl)[1,2,4]triazolo[1,5-a]pyrimidin-7(4H)-one] |
| > 100 | Cc1[nH]c2nc(-c3ccco3)nn2c(=O)c1C(C)C [Example 7-27, 2-furan-2-yl-5-methyl-6-(1-methylethyl)[1,2,4]triazolo[1,5-a]pyrimidin-7(4H)-one] |
| > 100 | Cc1[nH]c2nc(-c3ccccn3)nn2c(=O)c1C(C)C [Example 7-28, 5-methyl-6-(1-methylethyl)-2-pyridin-2-yl[1,2,4]triazolo[1,5-a]pyrimidin-7(4H)-one] |
| 35.4 | Cc1[nH]c2nc(C(C)C)nn2c(=O)c1C(C)C [Example 7-29, 5-methyl-2,6-bis(1-methylethyl)[1,2,4]triazolo[1,5-a]pyrimidin-7(4H)-one] |
| > 100 | Cc1[nH]c2nc(N3CCOCC3)nn2c(=O)c1C(C)C [Example 7-30, 5-methyl-6-(1-methylethyl)-2-morpholin-4-yl[1,2,4]triazolo[1,5-a]pyrimidin-7(4H)-one] |
| > 100 | Cc1nc2[nH]c(C(C)(C)C)cc(=O)n2n1 [Example 7-38, 5-tert-butyl-2-methyl[1,2,4]triazolo[1,5-a]pyrimidin-7(4H)-one] |
| > 100 | Cc1nc2[nH]c(C(F)(F)C(F)(F)F)cc(=O)n2n1 [Example 7-41, 2-methyl-5-(pentafluoroethyl)[1,2,4]triazolo[1,5-a]pyrimidin-7(4H)-one] |
| > 100 | Cc1nc2[nH]c(C)c(C3CCCC3)c(=O)n2n1 [Example 7-45, 6-cyclopentyl-2,5-dimethyl[1,2,4]triazolo[1,5-a]pyrimidin-7(4H)-one] |
| > 100 | Cc1nc2[nH]c(C3CC3)cc(=O)n2n1 [Example 7-46, 5-cyclopropyl-2-methyl[1,2,4]triazolo[1,5-a]pyrimidin-7(4H)-one] |

same assay, conditions: 5 nM full-length KDM5B, biotinylated H3K4Me3 peptide, 500 nM α-ketoglutarate; ten point titration 100000 nM to 5.08 nM; read-out: IC50

| SMILES | IC50 [µM] |
| --- | --- |
| CCCc1cc(=O)n2nc(C)nc2[nH]1 [Example 7-2, 2-methyl-5-propyl[1,2,4]triazolo[1,5-a]pyrimidin-7(4H)-one] | 97 |
| CCc1c(C)[nH]c2nc(N)nn2c1=O [Example 7-3, 2-amino-6-ethyl-5-methyl-[1,2,4]triazolo[1,5-a]pyrimidin-7(4H)-one] | 22.2 |
| CCc1c(C)[nH]c2nc(C)nn2c1=O [Example 7-5, 6-ethyl-2,5-dimethyl-[1,2,4]triazolo[1,5-a]pyrimidin-7(4H)-one] | 27.8 |
| Cc1nc2[nH]c(C)c(C)c(=O)n2n1 [Example 7-7, 2,5,6-trimethyl[1,2,4]triazolo[1,5-a]pyrimidin-7(4H)-one] | 32 |
| CCc1c(C)[nH]c2nc(C(F)(F)F)nn2c1=O [Example 7-9, 6-ethyl-5-methyl-2-(trifluoromethyl)[1,2,4]triazolo[1,5-a]pyrimidin-7(4H)-one] | 9.09 |
| Cc1cc(=O)n2nc(-c3ccncc3)nc2[nH]1 [Example 7-10, 5-methyl-2-(pyridin-4-yl)-[1,2,4]triazolo[1,5-a]pyrimidin-7(4H)-one] | 4.28 |
| Cc1nc2[nH]c(C(F)(F)F)cc(=O)n2n1 [Example 7-11, 2-methyl-5-(trifluoromethyl)-[1,2,4]triazolo[1,5-a]pyrimidin-7(4H)-one] | 27.9 |
| CCc1cc(=O)n2nc(C)nc2[nH]1 [Example 7-12, 5-ethyl-2-methyl-[1,2,4]triazolo[1,5-a]pyrimidin-7(4H)-one] | 73.7 |
| CCOC(=O)c1[nH]c2nc(C)nn2c(=O)c1Cl [Example 7-13, ethyl 6-chloro-2-methyl-7-oxo-4,7-dihydro[1,2,4]triazolo[1,5-a]pyrimidine-5-carboxylate] | 2.96 |
| CCc1c(C)[nH]c2nc(C(=O)OC)nn2c1=O [Example 7-14, methyl 6-ethyl-5-methyl-7-oxo-4,7-dihydro[1,2,4]triazolo[1,5-a]pyrimidine-2-carboxylate] | 34.9 |
| COC(=O)Cc1c(C)[nH]c2nc(C(=O)OC)nn2c1=O [Example 7-15, methyl 6-(2-methoxy-2-oxoethyl)-5-methyl-7-oxo-4,7-dihydro[1,2,4]triazolo[1,5-a]pyrimidine-2-carboxylate] | 68.1 |
| Cc1[nH]c2nc(N)nn2c(=O)c1C(C)C [Example 7-16, 2-amino-5-methyl-6-(1-methylethyl)[1,2,4]triazolo[1,5-a]pyrimidin-7(4H)-one] | 3.41 |
| Cc1[nH]c2nc(C3CC3)nn2c(=O)c1C(C)C [Example 7-18, 2-cyclopropyl-5-methyl-6-(1-methylethyl)[1,2,4]triazolo[1,5-a]pyrimidin-7(4H)-one] | 48.6 |
| Cc1[nH]c2nc(C3CCC3)nn2c(=O)c1C(C)C [Example 7-19, 2-cyclobutyl-5-methyl-6-(1-methylethyl)[1,2,4]triazolo[1,5-a]pyrimidin-7(4H)-one] | 92.7 |
| CCc1c(-c2ccccc2)[nH]c2nc(C)nn2c1=O [Example 7-20, 6-ethyl-2-methyl-5-phenyl[1,2,4]triazolo[1,5-a]pyrimidin-7(4H)-one] | 3.97 |

Further lines, results first:

| IC50 [µM] | SMILES |
| --- | --- |
| 7.99 | Cc1nc2[nH]c(C)c(C(C)C)c(=O)n2n1 [Example 7-21, 2,5-dimethyl-6-(1-methylethyl)[1,2,4]triazolo[1,5-a]pyrimidin-7(4H)-one] |
| 33.7 | Cc1[nH]c2nc(-c3ccc(F)cc3)nn2c(=O)c1C(C)C [Example 7-24, 2-(4-fluorophenyl)-5-methyl-6-(1-methylethyl)[1,2,4]triazolo[1,5-a]pyrimidin-7(4H)-one] |
| 67.6 | Cc1[nH]c2nc(-c3ccc(C(F)(F)F)cc3)nn2c(=O)c1C(C)C [Example 7-25, 5-methyl-6-(1-methylethyl)-2-[4-(trifluoromethyl)phenyl][1,2,4]triazolo[1,5-a]pyrimidin-7(4H)-one] |
| 95.8 | Cc1[nH]c2nc(-c3ccccc3Cl)nn2c(=O)c1C(C)C [Example 7-26, 2-(2-chlorophenyl)-5-methyl-6-(1-methylethyl)[1,2,4]triazolo[1,5-a]pyrimidin-7(4H)-one] |
| 39.2 | Cc1nc2[nH]c(C)c(Cl)c(=O)n2n1 [Example 7-31, 6-chloro-2,5-dimethyl[1,2,4]triazolo[1,5-a]pyrimidin-7(4H)-one] |
| 2.07 | Cc1[nH]c2nc(C(F)(F)F)nn2c(=O)c1C(C)C [Example 7-32, 5-methyl-6-(1-methylethyl)-2-(trifluoromethyl)[1,2,4]triazolo[1,5-a]pyrimidin-7(4H)-one] |
| 4.24 | CCc1c(-c2ccn(C)n2)[nH]c2nc(C)nn2c1=O [Example 7-33, 6-ethyl-2-methyl-5-(1-methyl-1H-pyrazol-3-yl)[1,2,4]triazolo[1,5-a]pyrimidin-7(4H)-one] |
| 1.25 | Cc1[nH]c2nc(Cl)nn2c(=O)c1C(C)C [Example 7-34, 2-chloro-5-methyl-6-(1-methylethyl)[1,2,4]triazolo[1,5-a]pyrimidin-7(4H)-one] |
| 1.92 | Cc1[nH]c2nc(Br)nn2c(=O)c1C(C)C [Example 7-35, 2-bromo-5-methyl-6-(1-methylethyl)[1,2,4]triazolo[1,5-a]pyrimidin-7(4H)-one] |
| 25.4 | Cc1nc2[nH]c(-c3ccn(C)n3)cc(=O)n2n1 [Example 7-36, 2-methyl-5-(1-methyl-1H-pyrazol-3-yl)[1,2,4]triazolo[1,5-a]pyrimidin-7(4H)-one] |
| 66.5 | Cc1[nH]c2nc(CCCO)nn2c(=O)c1C(C)C [Example 7-37, 2-(3-hydroxypropyl)-5-methyl-6-(1-methylethyl)[1,2,4]triazolo[1,5-a]pyrimidin-7(4H)-one] |
| 8.07 | Cc1nc2[nH]c(-c3ccc(F)cc3)cc(=O)n2n1 [Example 7-39, 5-(4-fluorophenyl)-2-methyl[1,2,4]triazolo[1,5-a]pyrimidin-7(4H)-one] |
| 36.7 | Cc1nc2[nH]c(-c3ccoc3)cc(=O)n2n1 [Example 7-40, 5-furan-3-yl-2-methyl[1,2,4]triazolo[1,5-a]pyrimidin-7(4H)-one] |
| 21.1 | COc1c(C(F)(F)F)[nH]c2nc(C)nn2c1=O [Example 7-42, 6-methoxy-2-methyl-5-(trifluoromethyl)[1,2,4]triazolo[1,5-a]pyrimidin-7(4H)-one] |
| 23.2 | Cc1nc2[nH]c(-c3ccccn3)cc(=O)n2n1 [Example 7-43, 2-methyl-5-pyridin-2-yl[1,2,4]triazolo[1,5-a]pyrimidin-7(4H)-one] |
| 33.8 | Cc1nc2[nH]c(-c3ccco3)cc(=O)n2n1 [Example 7-44, 5-furan-2-yl-2-methyl[1,2,4]triazolo[1,5-a]pyrimidin-7(4H)-one] |
